Measured values published in paper PMC12661400, “Oral bioavailable ITRI-148 degrades androgen receptor variants and overcomes antiandrogen resistance in advanced prostate cancer” (Neoplasia (New York, N.Y.), 2025).
Like-named read-outs stand apart in the source and are kept apart here.

Experiments:
[1] = test system: VCaP xenografts; assay: Castrated VCaP xenograft study; format: in vivo; settings: for tumor growth inhibition (TGI): castrated mice
Source text: Immunodifficient male CB-17 SCID mice (CB17/Icr-Prkdc^scid/IcrIcoCrlBltw) and NOD SCID mice (NOD.CB17-Prkdc^scid/NCrCrlBltw) mice at four to six weeks of age were purchased from BioLASCO Taiwan Co., Ilan, Taiwan. All mice were housed in conventional cages in the AAALAC Full Accreditation (2011) in Industrial Technology Research Institute and were allowed to acclimatize and recover from shipping-related stress for one week prior to the study. The health of the mice was monitored by daily observations. Animals were kept in rooms at temperature of 22–26°C with 40–70 % humidity, positive pressure, 60 % air recirculation, ventilation rate 15–20 changes per hour, and a controlled light-dark cycle (12–12 hours). The order and location of each animal cage was randomly assigned to minimize potential confounders. CWR22Rv1 cells (5 × 10^6) were suspended in 100 μL of PBS with 30 % Matrigel and subcutaneously implanted into the right flank of male CB-17 SCID mice. Tumors were measured with calipers, and tumor size was calculated as follows: tumor volume (V) = (L × S^2)/2 (L, longest diameter, mm; S, shortest diameter, mm). When mean tumor volume reached 150–200 mm^3, the mice were randomly assigned into indicated groups (n = 5-6/ group) and the day of initiating treatments was assigned as day 0. VCaP cells (5 × 10⁶) suspended in 50 % Matrigel were subcutaneously implanted into male NOD SCID mice. Once tumors reached approximately 250 mm³, castration surgery was performed. After tumor regression and subsequent regrowth to around 250 mm³, treatment with ITRI-148 was initiated. Oral (PO) gavage was used for the drug administration, including vehicle control and ITRI-148 treatments (7.5 mg/kg, 15 mg/kg, 30 mg/kg, or 60 mg/kg, BID). Tumor size and body weight of the animals were monitored and recorded two to three times per week. Mice were sacrificed when one of the tumor reached over 1000 mm^3 in size. Tumors were collected and immediately subjected to liquid nitrogen freezing and homogenization. The homogenized tumor samples were stored at −80°C for subsequent western blotting analysis. The drug antitumor efficacy was presented as percentages of TGI of each tested animal, calculated as follows: [1 − (final tumor volume ^treated group – initial tumor volume ^treated group) / (final tumor volume ^vehicle group – initial tumor volume ^vehicle group)] × 100. Body weight of each mouse was also compared to that on the first day of treatment (day 0) and expressed as a percentage of day 0 value. All data points were included for calculation and the values are presented as mean ± SEM. Statistical analysis of the differences between two drug and vehicle treated groups was determined by two-tailed Student’s t-test.

[2] = Toxicokinetic profiling in rats; format: in vivo; settings: Sprague-Dawley, rat, plasma, po; for AUC: read-out: AUC24
Description: Repeated-dose toxicity and toxicokinetic studies
Repeated-dose oral toxicity study and toxicokinetic (TK) profiling was conducted in Sprague-Dawley rats. ITRI-148 was administered once daily using oral gavage at doses of 100, 300, 600, and 1000 mg/kg/day for 7 consecutive days, followed by a 7-day recovery period. Each dose group comprised 3 animals designated for toxicokinetic (TK) analysis and 6 animals for dose-range finding (DRF) evaluation. Clinical observations, body weights, and food consumption were monitored daily throughout the dosing and recovery periods. After the first (Day 0) and last (Day 6) dosing, serial blood samples were collected at the pose-dose time points of 0.5, 1, 2, 4, 7, 24, 48 and 72 hours for TK profiling analysis. Plasma concentrations of ITRI-148 were quantified using a validated LC-MS/MS method. Analysis was performed using a Sciex QTrap 4000 mass spectrometer coupled with a Shimadzu LC system. The chromatographic separation was achieved on a C18 reverse-phase column with a gradient elution of acetonitrile and 0.1% formic acid in water. The lower limit of quantification (LLOQ) […]
was 5 ng/mL. All samples were analyzed in duplicate. […]
All procedures were conducted in compliance with institutional animal care and use guidelines. […]
Targeting androgen receptor and the variants by an orally bioavailable
Proteolysis Targeting Chimeras compound in castration resistant prostate cancer

[3] = 100 mg/kg, 7-times repeated dosing 100 mg/kg
[4] = 100 mg/kg, single dosing 100 mg/kg
[5] = 300 mg/kg, 7-times repeated dosing 300 mg/kg
[6] = 300 mg/kg, single dosing 300 mg/kg
[7] = 600 mg/kg, 7-times repeated dosing 600 mg/kg
[8] = 600 mg/kg, single dosing 600 mg/kg
[9] = 1000 mg/kg, 7-times repeated dosing 1000 mg/kg
[10] = 1000 mg/kg, single dosing 1000 mg/kg

**Q.** For `O=C1CCC(N2C(=O)c3cccc(NCC(=O)N4CCC(N5CCC(C#Cc6ccc(C7CCN(C8=Nn9c(nnc9C(F)(F)F)CC8)CC7)cc6)CC5)CC4)c3C2=O)C(=O)N1` (stereo not shown) [ITRI-148], which “toxicity reflected by weight-loss of the animals” value ([1]; PO 7.5-30 mg/kg BID) is on record?
**A.** Its value is “No toxicity reflected by weight-loss of the animals was observed”.

**Q.** What about the “tumor growth inhibition (TGI)” value ([1]; PO 7.5 mg/kg BID) of the same molecule?
**A.** Its value is 49.06%.

**Q.** And the “tumor growth inhibition (TGI)” value ([1]; PO 15 mg/kg BID)?
**A.** The value was 95.08%.

**Q.** What about the “tumor growth inhibition (TGI)” value ([1]; PO 30 mg/kg BID, average) of the same molecule?
**A.** Its value is 147.07%.

**Q.** What about the AUC(0-t) [2, 3] of the same molecule?
**A.** Its AUC(0-t) is 8750 ng·h/mL.

**Q.** And the Cmax [2, 3]?
**A.** The Cmax was 561 ± 62.1 ng/mL.

**Q.** And the AUC [2, 3]?
**A.** Its AUC is 8330 ng·h/mL.

**Q.** And the AUC(0-t) [2, 4]?
**A.** The AUC(0-t) was 9300 ng·h/mL.

**Q.** What about the Cmax [2, 4] of the same molecule?
**A.** Its Cmax is 466 ± 13.6 ng/mL.

**Q.** What about the AUC [2, 4] of the same molecule?
**A.** Its AUC is 7670 ng·h/mL.

**Q.** What about the AUC(0-t) [2, 5] of the same molecule?
**A.** Its AUC(0-t) is 20500 ng·h/mL.

**Q.** And the Cmax [2, 5]?
**A.** The Cmax was 1050 ng/mL.

**Q.** And the AUC [2, 5]?
**A.** Its AUC is 17000 ng·h/mL.

**Q.** And the AUC(0-t) [2, 6]?
**A.** Its AUC(0-t) is 20100 ng·h/mL.

**Q.** What about the Cmax [2, 6] of the same molecule?
**A.** Its Cmax is 659 ± 184 ng/mL.

**Q.** And the AUC [2, 6]?
**A.** The AUC was 13000 ng·h/mL.

**Q.** And the AUC(0-t) [2, 7]?
**A.** Its AUC(0-t) is 35200 ng·h/mL.

**Q.** What about the Cmax [2, 7] of the same molecule?
**A.** The Cmax was 1440 ng/mL.

**Q.** What about the AUC [2, 7] of the same molecule?
**A.** The AUC was 25200 ng·h/mL.

**Q.** What about the AUC(0-t) [2, 8] of the same molecule?
**A.** The AUC(0-t) was 27100 ng·h/mL.

**Q.** What about the Cmax [2, 8] of the same molecule?
**A.** Its Cmax is 914 ± 296 ng/mL.

**Q.** And the AUC [2, 8]?
**A.** The AUC was 15100 ng·h/mL.

**Q.** And the AUC(0-t) [2, 9]?
**A.** The AUC(0-t) was 56000 ng·h/mL.

**Q.** And the Cmax [2, 9]?
**A.** Its Cmax is 1910 ng/mL.

**Q.** And the AUC [2, 9]?
**A.** The AUC was 36600 ng·h/mL.

**Q.** What about the AUC(0-t) [2, 10] of the same molecule?
**A.** The AUC(0-t) was 40400 ng·h/mL.

**Q.** What about the Cmax [2, 10] of the same molecule?
**A.** The Cmax was 1000 ng/mL.

**Q.** And the AUC [2, 10]?
**A.** Its AUC is 17400 ng·h/mL.
